The results in this text go back to patent US20260097111A1, “ETHER LIPIDS FOR HYPERACTIVATION OF MAMMALIAN DENDRITIC CELLS” (priority 2022, published 2026).

Type in all cases: cell-based
Series [1] has as its system human moDCs. Kind of series: Cell viability of human moDCs (CellTiter-Glo). To be noted: human moDCs, R848 + lipid with MCC950; FIG. 3A. The procedure: After an overnight incubation, cells and culture supernatant were used for downstream readouts. One hundred and fifty microliters of cell supernatant were collected. Viability was measured using the CellTiter-Glo assay (Promega) which measures ATP content from cells. Fifty microliters of CellTiter-Glo reagent were added to 50 μL of cells. Luminescence was quantified on a SpectraMax m5e plate reader using an integration time of 500 milliseconds. Viability data were set relative to control conditions where cells were treated with only R848. To measure IL-1β secretion, the human IL-1β Lumit kit (Promega) was used to assay cell culture supernatant. Culture supernatant samples were incubated with enzyme-linked antibodies in a 384-well plate for 1 hour before addition of luminescent substrate. Samples were measured for luminescence with an integration time of 500 milliseconds. IL-1β concentrations of samples was determined by interpolation from a standard curve using 4-parameter logistic regression analysis. Studies were performed on three different human donor samples, and each biological condition was tested in triplicate. Graphed data represent means from each donor.
Measurement of Cytokine Secretion and Cell Viability. After an overnight incubation, cells and culture supernatant were used for downstream readouts. One hundred and fifty microliters of cell culture supernatant were collected. Viability was measured using the CellTiter-Glo assay (Promega) which measures ATP content from cells. Fifty microliters of CellTiter-Glo reagent were added to 50 μL of cells. Luminescence was quantified on a SpectraMax m5e plate reader using an integration time of 500 milliseconds. Viability data were set relative to control conditions where cells were treated with only R848. To measure IL-1β secretion, the human IL-1β Lumit kit (Promega) was used. […] Samples were measured for luminescence with an integration time of 500 milliseconds. IL-1β concentrations of samples was determined by interpolation from a standard curve using 4-parameter logistic regression analysis. […]
A general note: Cellular ATP, detected with luciferase, serves as a proxy for viable cell number.

Series [2] deals with human moDCs. Nature of the series: IL-6 secretion by human moDCs. The note with it: human moDCs, 41.25 μM lipid with R848, compared with R848 + vehicle; FIG. 16.
The test system of another series is human moDC. Kind of series: Staining moDC for activation marker expression. The protocol: Staining moDC for Activation Marker Expression. After treatment and supernatant collection, cells were resuspended in 200 μL/well PBS and transferred to 96-well V-bottom plates. To pellet cells and remove supernatant, plates were spun at 400×g for 4 min for this and subsequent steps. Cells were washed again with 200 μL/well PBS and pelleted. Live/dead Near-IR staining dye was diluted 1000-fold in PBS. […] Fc block was diluted 100-fold in FACS buffer, and 100 μL/well was added to cells. Cells were incubated with Fc block for 10 min at 4° C. During incubation primary CCR7 antibody (clone 2H4) was diluted 100-fold in FACS buffer. Cells were pelleted and primary CCR7 antibody was added at 100 μL/well. Cells were incubated at 37° C. for 30 min. Biotinylated rat anti-mouse IgM secondary was prepared by diluting 200-fold in FACS buffer. Cells were washed twice with FACS buffer before 100 μL/well secondary antibody was added. Cells were incubated at 4° C. for 20 min. Tertiary staining antibody cocktail was prepared in a mixture of FACS buffer and Brilliant Stain Buffer (1:1 volume ratio of each buffer). […], CD11c (PE-Cy7), CD209 (PE), CD40 (UV563), CD83 (UV737), CD86 (BV711), and HLA-DR (UV395) were all diluted 200-fold. HLA-ABC (BV605) was diluted 100-fold. […]
For flow cytometry analysis, fluorescence compensation was set up using compensation […]. […]

Regarding `CC(C)(O)c1coc(S(=O)(=O)NC(=O)Nc2c3c(cc4c2CCC4)CCC3)c1` [MCC950, reference compound], the cell viability result in the series on human moDCs [1] is on record as “did not affect cell viability”.

Consider `CCCCCCCCCCCCCCCCCCCCCCOC[C@@H](O)COP(=O)(O)O` [Compound 2, 1-docosyl-sn-glycerol-3-phosphate], for which, in the series with human moDCs [2], the IL-6 secretion result is “IL-6 was secreted at similar levels”. For the same molecule, the “percentage of CD83+ cells” value with human moDC (2.85 μM R848 and/or 82.5 μM DGP, overnight, FIG. 24A) was “increased CD83 expression, but increase was not found to be statistically significant”. For the same molecule, the “CD86 MFI” value with human moDC (FIG. 25B) is on record as “significant increases in CD86 expression as compared to unstimulated cells”.
